Legend:
Test in all cases: Minimum inhibitory concentration (MIC) and checkerboard assay
Format in all cases: cell-based
Details in all cases: unit assumed
[1] = system: Escherichia coli (ATCC 8739)
Excerpt: (§1) Escherichia coli (ATCC 8739), Staphylococcus aureus (ATCC 6538), P. aeruginosa (ATCC 9027), Candida albicans (ATCC 10231), and Aspergillus brasiliensis (ATCC 16404) were obtained from ATCC and cultured according to the manufacturer's instructions. These microorganisms are routinely used for minimum inhibitory concentration (MIC), checkerboards and challenge tests according to the US and EU recommendations for the efficacy of preservatives in the cosmetic industry. Bacterial strains were maintained in tryptic soy agar (TSA) (Hy-labs, Rehovot, Israel), while yeast and mold strains were maintained in sabouraud dextrose agar (SDA) (Hy-labs, Israel), supplemented with oxytetracycline at a concentration of 1% (Hy-labs, Israel). […] Briefly, growth of E. coli, S. aureus, P. aeruginosa, P. gergoviea, B. cepacia, C. albicans, and A. brasiliensis was observed during incubation with two-fold serial dilutions of the abovementioned compounds in Mueller Hinton (MH) broth, using a 96-well plate (BIOFUL, Israel). For the checkerboard assay using a 96-well plate, decreasing concentrations of one compound were added from top to bottom of the plate using serial dilutions. Decreasing concentrations of the second compound were added to the plate from the right, having the highest concentration, to the left side of the plate with the lowest concentration. […] Bacteria inoculated plates were incubated for 24 h at 32° C. with shaking, while fungi inoculated plates were incubated at 23° C. for 48-72 h with shaking. Microorganism growth was evaluated by a spectrophotometer O.D. reads (BioTek, Israel). The culture is standardized using standard microbiological techniques to have a concentration of very near 1 million cells per milliliter. The antimicrobial agent is diluted a number of times, with Tryptic soy broth or Sabouraud broth for fungi. After the antimicrobial agent had been diluted, a volume of the standardized inoculums was added to each dilution vessel, bringing the microbial concentration to approximately 1,000,000 cells per milliliter. The inoculated, serially diluted antimicrobial agent was incubated at an appropriate temperature for the test organism, 24 hours for bacteria 48 for yeast and 72 for mold. […] The microorganism strains used for the test were E. coli ATCC 8739, P. aeruginosa ATCC 9027, S. aureus ATCC 6538, C. albicans ATCC 10231, A. brasiliensis ATCC 16404. Measuring synergy between preservatives can be done by the widely described Fractional Inhibitory Concentration Index (FICI). While the MIC is defined as the lowest concentration of molecule alone or in combination that inhibited visible growth, the in vitro interactions can be quantified as FICI and calculated using the following formula: […]

[2] = system: P. aeruginosa (ATCC 9027)
Excerpt: as §1

[3] = system: Staphylococcus aureus (ATCC 6538)
Excerpt: as §1

[4] = system: Aspergillus brasiliensis (ATCC 16404)
Excerpt: (§2) Escherichia coli (ATCC 8739), Staphylococcus aureus (ATCC 6538), P. aeruginosa (ATCC 9027), Candida albicans (ATCC 10231), and Aspergillus brasiliensis (ATCC 16404) were obtained from ATCC and cultured according to the manufacturer's instructions. These microorganisms are routinely used for minimum inhibitory concentration (MIC), checkerboards and challenge tests according to the US and EU recommendations for the efficacy of preservatives in the cosmetic industry. Bacterial strains were maintained in tryptic soy agar (TSA) (Hy-labs, Rehovot, Israel), while yeast and mold strains were maintained in sabouraud dextrose agar (SDA) (Hy-labs, Israel), supplemented with oxytetracycline at a concentration of 1% (Hy-labs, Israel). […] Briefly, growth of E. coli, S. aureus, P. aeruginosa, P. gergoviea, B. cepacia, C. albicans, and A. brasiliensis was observed during incubation with two-fold serial dilutions of the abovementioned compounds in Mueller Hinton (MH) broth, using a 96-well plate (BIOFUL, Israel). For the checkerboard assay using a 96-well plate, decreasing concentrations of one compound were added from top to bottom of the plate using serial dilutions. Decreasing concentrations of the second compound were added to the plate from the right, having the highest concentration, to the left side of the plate with the lowest concentration. […] Bacteria inoculated plates were incubated for 24 h at 32° C. with shaking, while fungi inoculated plates were incubated at 23° C. for 48-72 h with shaking. Microorganism growth was evaluated by a spectrophotometer O.D. reads (BioTek, Israel). In another exemplary procedure, MIC evaluation test with A. brasiliensis was performed in test tubes. Growth in this case is visually evaluated. A pure culture of a single microorganism was grown in Tryptic soy broth, or Sabouraud broth for yeast and mold. […] While the MIC is defined as the lowest concentration of molecule alone or in combination that inhibited visible growth, the in vitro interactions can be quantified as FICI and calculated using the following formula: […]

[5] = system: Candida albicans (ATCC 10231)
Excerpt: as §2, with “In additional” for “In another”, “with Candida albicans” for “with A. brasiliensis”, “Sabouraud dextrose” for “Sabouraud”

Row | Compound | MIC E. coli [1] [µg/mL] | MIC P. aeruginosa [2] [µg/mL] | MIC S. aureus [3] [µg/mL] | MIC A. brasiliensis [4] [µg/mL] | MIC C. albicans [5] [µg/mL]
1 | CCCCC(CC)COCC(O)CO (stereo not drawn) [EHG, ethylhexylglycerin] | 5000 | > 5000 | 2500 | 1250 | 2500
2 | Cc1occc(=O)c1O [Maltol, maltol] | 5000 | 1250 | 5000 | 1250 | 1880
3 | CC(=O)[O-].CC(=O)[O-].[Zn+2] [Zinc Acetate, zinc acetate] | 312 | 312 | 160 | 100 | 110

From US20240298646A1, “ANTIBIOFILM PRESERVATIVE COMPOSITIONS” (SHARON PERSONAL CARE LTD., priority 2021, published 2024)
